Measurements: US9504256B2, “Fabrication of magnetic nanoparticles” (University of South Carolina, priority 2013, dated 2016)

Test system: Staphylococcus aureus ATCC 25423
Assay: Disk diffusion assay
Type: cell-based
Settings: ATCC25423, 12 μg PenG, read-out: inhibition zone diameter
Experimental: The PMAA grafted magnetic nanoparticles were used to non-covalently attach the beta-lactam antibiotic penicillin-G (PenG) and subsequently tested for activity against bacteria. Escherichia coli (Gram-negative) and Staphylococcus aureus (Gram-positive) were selected as the target bacteria. The disk diffusion assay of PenG-nanoparticle complex was conducted with a control group of free PenG of the same dose (12 μg PenG). […] Thus, PMAA grafted magnetic nanoparticles enhanced the bioactivity of penG against bacteria when the nanoparticles were physically bound with PenG. Without wishing to be bound by any particular theory, it is believed that the enhanced inhibition activity was due to the locally high concentrations of antibiotics physically attached to PMAA grafted magnetic nanoparticles, which overwhelms the resistance of bacterial strains. The magnetic properties also offer a valuable stimulus technique to direct the nanoparticles in complicated bacterial environments, such as biofilms, while free antibiotic are not able to access cells in the sticky extracellular polymeric substances (EPS) of biofilms.
Escherichia coli ATCC 25922 and Staphylococcus aureus ATCC 25423 were allowed to grow in 10 mL of tryptic soy broth (TSB) at 37° C. overnight to an optical density of 0.8 (OD600=0.8) and then diluted 10-fold. 0.1 mL of the diluted culture was used to inoculate an agar plate. […]

## CC1(C)S[C@@H]2[C@H](NC(=O)Cc3ccccc3)C(=O)N2[C@H]1C(=O)O [free PenG, penicillin-G]
  zone of inhibition at 12 µg/disc: 18 mm
